Our source for the CC50, metabolised and selectivity ratio values is ChEMBL document CHEMBL4619758, “Discovery of 3-({5-Chloro-1-[3-(methylsulfonyl)propyl]-1H-indol-2-yl}methyl)-1-(2,2,2-trifluoroethyl)-1,3-dihydro-2H-imidazo[4,5-c]pyridin-2-one (JNJ-53718678), a Potent and Orally Bioavailable Fusion Inhibitor of Respiratory Syncytial Virus” (J Med Chem, 2020).

Structures are written as SMILES.

The nature of series [1]: Cytotoxicity against human HeLa cells assessed as reduction in cell viability after 3 days by ATPlite assay.
A short description of series [2]: Metabolic stability in human liver microsomes assessed as compound metabolized after 15 mins. The format is ADME, Microsome. The note with it: read-out: Drug metabolism. On the technique in general: Liver microsomes are vesicles of endoplasmic reticulum, rich in cytochrome P450 enzymes.
Series [3] in a line: in vitro. Particulars: human, HeLa cells.
Description: Selectivity index, ratio of CC50 for human HeLa cells to EC50 GFP-fused RSV 224 fusion protein infected in human HeLa cells

In the case of `O=c1n(Cc2cc3cc(Br)ccc3n2CCCCO)c2cnccc2n1C1CC1`, the half-maximal cytotoxic concentration (CC50) at 72 h in series [1] was greater than 50 µM. Turning to `O=c1n(Cc2cc3cc(Cl)ccc3n2CCCCF)c2cnccc2n1C1CC1`, the cytotoxic concentration (CC50) at 72 h in series [1] is greater than 50 µM. In addition, the metabolised at 0.25 h in series [2] came to 37%. `COc1ccc(-n2c(=O)n(Cc3cc4cc(Cl)ccc4n3CCCC#N)c3cnccc32)c(F)c1`: the CC50 at 72 h in series [1] was greater than 50 µM. Also, the metabolised at 0.25 h in series [2] is 17%. For `CS(=O)(=O)CCCn1c(Cn2c(=O)n(C3CC3)c3ccncc32)cc2cc(C(F)(F)F)ccc21`, the CC50 at 72 h in series [1] is greater than 50 µM.

Turning to `CS(=O)(=O)CCCn1c(Cn2c(=O)n(CC#N)c3ccncc32)cc2cc(Cl)ccc21`, in series [1], the CC50 at 72 h is greater than 50 µM. In addition, the metabolised at 0.25 h in series [2] is 66%. For the molecule `O=c1n(Cc2cc3cc(F)ccc3n2CCCCO)c2cnccc2n1C1CC1`, in series [1], the CC50 at 72 h is greater than 50 µM. Still for that read-out and setting: the figure for `CS(=O)(=O)CCCn1c(Cn2c(=O)n(C3CC3)c3ccncc32)cc2cc(Br)ccc21` is greater than 50 µM; for `O=C(O)CCCn1c(Cn2c(=O)n(C3CC3)c3ccncc32)cc2cc(Cl)ccc21` it is greater than 50 µM. Regarding `COc1ccc(-n2c(=O)n(Cc3cc4cc(Cl)ccc4n3CCCC#N)c3cnccc32)cc1C`, the CC50 at 72 h in series [1] is greater than 50 µM. In addition, the metabolised at 0.25 h in series [2] is 33%. For the molecule `CS(=O)(=O)CCCn1c(Cn2c(=O)n(C3CC3)c3ccncc32)cc2cc(F)ccc21`, in series [1], the CC50 at 72 h is greater than 50 µM.

For the molecule `Cc1ccc(-n2c(=O)n(Cc3cc4cc(Cl)ccc4n3CCCC#N)c3cnccc32)cc1`, the CC50 at 72 h in series [1] is greater than 50 µM. In addition, in series [2], the metabolised at 0.25 h amounted to 36%. As for `O=c1n(Cc2cc3cnccc3n2CCCCF)c2cnccc2n1C1CC1`, the CC50 at 72 h in series [1] was greater than 50 µM. Moreover, the metabolised at 0.25 h in series [2] was found to be 15%.

As for `CC(C)CCn1c(Cn2c(=O)n(C3CC3)c3ccncc32)nc2ccncc21`, the CC50 at 72 h in series [1] is greater than 100 µM. Also, in series [3], the selectivity ratio was greater than 987. Take `COc1ccc2c(c1)cc(Cn1c(=O)n(C3CC3)c3ccncc31)n2CCCCO`: in series [1], the half-maximal cytotoxic concentration (CC50) at 72 h is greater than 50 µM. For `CC(C)CCn1c(Cn2c(=O)n(C3CC3)c3ccncc32)nc2nc(Cl)ccc21`, the CC50 at 72 h in series [1] is greater than 50 µM. Moreover, the metabolised at 0.25 h in series [2] turned out to be 7%. Consider `CC(C)CCn1c(Cn2c(=O)n(C3CC3)c3ccncc32)nc2ncccc21`, for which, in series [1], the CC50 at 72 h was greater than 100 µM. Also, in series [3], the selectivity ratio is greater than 12000. For `CS(=O)(=O)CCCn1c(Cn2c(=O)n(C3COC3)c3ccncc32)cc2cc(Cl)ccc21`, the CC50 at 72 h in series [1] was greater than 50 µM. Besides, the metabolised at 0.25 h in series [2] was determined as 52%. Consider `CC(C)(O)CCCn1c(Cn2c(=O)n(C3CC3)c3ccncc32)nc2nc(Cl)ccc21`, for which the cytotoxic concentration (CC50) at 72 h in series [1] was greater than 50 µM. Also, the metabolised at 0.25 h in series [2] amounted to 41%. On to `CC(C)(C)n1c(=O)n(Cc2cc3cc(Cl)ccc3n2CCCS(C)(=O)=O)c2cnccc21`, for which, in series [1], the CC50 at 72 h is greater than 50 µM. Further, the metabolised at 0.25 h in series [2] was 28%.

As to `CS(=O)(=O)CCCn1c(Cn2c(=O)n(C3CC3)c3ccncc32)cc2cnccc21`, in series [1], the CC50 at 72 h was greater than 50 µM. Also, in series [2], the metabolised at 0.25 h was 32%. Regarding `CS(=O)(=O)CCCn1c(Cn2c(=O)n(C3CC3)c3ccncc32)cc2ccccc21`, the CC50 at 72 h in series [1] was greater than 100 µM. In addition, the selectivity ratio in series [3] was greater than 10000. As for `CC(n1c(=O)n(Cc2cc3cc(Cl)ccc3n2CCCS(C)(=O)=O)c2cnccc21)C(F)(F)F` (centres undefined), in series [1], the CC50 at 72 h is greater than 50 µM. Further, the metabolised at 0.25 h in series [2] turned out to be 2%. With `N#CCCCn1c(Cn2c(=O)n(C3CC3)c3ccncc32)nc2nc(Cl)ccc21`, the CC50 at 72 h in series [1] is greater than 50 µM. Further, the metabolised at 0.25 h in series [2] came to 0%. Take `N#CCCCn1c(Cn2c(=O)n(-c3ccncc3F)c3ccncc32)cc2cc(Cl)ccc21`: the CC50 at 72 h in series [1] was greater than 50 µM. Moreover, in series [2], the metabolised at 0.25 h turned out to be 27%. As for `CC(C)CCn1c(Cn2c(=O)n(C3CC3)c3ccncc32)cc2cccnc21`, in series [1], the CC50 at 72 h is greater than 100 µM. On to `O=c1n(Cc2nc3nc(Cl)ccc3n2CCCCF)c2cnccc2n1C1CC1`, for which the CC50 at 72 h in series [1] was greater than 50 µM. Besides, the metabolised at 0.25 h in series [2] came to 0%. For the molecule `O=c1n(Cc2cc3ccc(Cl)cc3n2CCCCO)c2cnccc2n1C1CC1`, the CC50 at 72 h in series [1] is greater than 50 µM. As for `N#CCCCn1c(Cn2c(=O)n(-c3ccc(C(=O)NC4CC4)cc3)c3ccncc32)cc2cc(Cl)ccc21`, the CC50 at 72 h in series [1] was greater than 50 µM. For the same molecule, in series [2], the metabolised at 0.25 h amounted to 24%. In the case of `O=c1n(Cc2cc3cc(Cl)ccc3n2CCCC(F)(F)F)c2cnccc2n1C1CC1`, the CC50 at 72 h in series [1] is greater than 50 µM. The metabolised at 0.25 h in series [2] came out at 23%.

For `O=c1n(Cc2cc3cc(Cl)ccc3n2CCCN2CCOCC2)c2cnccc2n1C1CC1`, the CC50 at 72 h in series [1] is greater than 50 µM. Also, the metabolised at 0.25 h in series [2] stood at 99%. For the molecule `N=C(CCCn1c(Cn2c(=O)n(C3CC3)c3ccncc32)cc2cc(Cl)ccc21)NO`, in series [1], the 50% cytotoxic concentration (CC50) at 72 h was greater than 50 µM. The metabolised at 0.25 h in series [2] amounted to 37%. As to `CS(=O)(=O)CCCn1c(Cn2c(=O)n(C3CC3)c3ccncc32)nc2nc(Cl)ccc21`, the CC50 at 72 h in series [1] was greater than 50 µM. Moreover, the metabolised at 0.25 h in series [2] was determined as 0%. Consider `COc1ccc(-n2c(=O)n(Cc3cc4cc(Cl)ccc4n3CCCC#N)c3cnccc32)c(C)c1`, for which the 50% cytotoxic concentration (CC50) at 72 h in series [1] was greater than 50 µM. The metabolised at 0.25 h in series [2] is 36%. With `O=c1n(Cc2nc3nc(Cl)ccc3n2CCCCO)c2cnccc2n1C1CC1`, in series [1], the CC50 at 72 h was greater than 50 µM. The metabolised at 0.25 h in series [2] was 0%. The corresponding values for `N#CCCCn1c(Cn2c(=O)n(-c3ccncn3)c3ccncc32)cc2cc(Cl)ccc21` are greater than 50 µM and 60%. The corresponding values for `Cn1ccc(-n2c(=O)n(Cc3cc4cc(Cl)ccc4n3CCCC#N)c3cnccc32)n1` are greater than 50 µM and 49%. The corresponding values for `CC(C)CCn1c(Cn2c(=O)n(C3CC3)c3ccncc32)cc2cnccc21` are greater than 50 µM and 44%. Regarding `CC(C)(O)CCCn1c(Cn2c(=O)n(C3CC3)c3ccncc32)cc2cc(Cl)ccc21`, the half-maximal cytotoxic concentration (CC50) at 72 h in series [1] was greater than 50 µM. Besides, the metabolised at 0.25 h in series [2] is 56%. Regarding `CS(=O)(=O)CCCn1c(Cn2c(=O)n(C3CN(S(C)(=O)=O)C3)c3ccncc32)cc2cc(Cl)ccc21`, the CC50 at 72 h in series [1] is greater than 50 µM. Further, the metabolised at 0.25 h in series [2] turned out to be 15%.

In the case of `N#CCCCn1c(Cn2c(=O)n(-c3ccc(C(=O)O)cc3)c3ccncc32)cc2cc(Cl)ccc21`, in series [1], the CC50 at 72 h was greater than 50 µM. In series [2], the metabolised at 0.25 h stood at 9%.

As to `N#CCCCn1c(Cn2c(=O)n(-c3ncccn3)c3ccncc32)cc2cc(Cl)ccc21`, the CC50 at 72 h in series [1] is greater than 50 µM. Also, the metabolised at 0.25 h in series [2] is 34%.

For the molecule `N#CCCCn1c(Cn2c(=O)n(-c3ncco3)c3ccncc32)cc2cc(Cl)ccc21`, the CC50 at 72 h in series [1] is greater than 50 µM. The metabolised at 0.25 h in series [2] came out at 45%.

`NC(=O)CCCn1c(Cn2c(=O)n(C3CC3)c3ccncc32)cc2cc(Cl)ccc21`: the CC50 at 72 h in series [1] was greater than 50 µM.

Take `O=c1n(Cc2cc3cc(Cl)ccc3n2CCCCO)c2cnccc2n1C1CC1`: the CC50 at 72 h in series [1] is greater than 50 µM. Also, the metabolised at 0.25 h in series [2] stood at 49%.

For the molecule `N#CCCCn1c(Cn2c(=O)n(-c3ccc(OC(F)(F)F)cc3)c3ccncc32)cc2cc(Cl)ccc21`, the CC50 at 72 h in series [1] was greater than 50 µM. In addition, the metabolised at 0.25 h in series [2] was found to be 0%. The corresponding values for `N#CCCCn1c(Cn2c(=O)n(-c3ccncc3)c3ccncc32)cc2cc(Cl)ccc21` are greater than 50 µM and 23%. Regarding `CS(=O)(=O)CCCn1c(Cn2c(=O)n(C3CNC3)c3ccncc32)cc2cc(Cl)ccc21`, the CC50 at 72 h in series [1] was greater than 50 µM. Besides, the metabolised at 0.25 h in series [2] came out at 14%.

Usually CC50 stands for the concentration that lowers cell viability or growth by half.
